Strand notation (5' to 3'): a small letter for the sugar, then the base; units joined by * are phosphorothioate-linked, units joined directly phosphodiester-linked; [ ] holds rarer units or linkages, { } end groups; capitals alone tell only the bases. e = 2'-O-(2-methoxyethyl) (MOE); [5mC] = 5-methylcytosine; d = 2'-deoxy (DNA)

This data set has as its system human PKK mRNA. Put plainly: Antisense inhibition of human PKK mRNA in HepaRG cells, 5,000 nM (Example 2). The data set is classed as cell-based. In a few lines: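 qRT-PCR (RTS3454) read-out, RIBOGREEN-normalized; % inhibition vs untreated cells. HepaRG, 20,000 cells/well, electroporation, 5,000 nM ASO, ~24 h.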
[1] abbreviates: human PKK mRNA, HepaRG cells, 5-10-5 motif oligonucleotides targeting SEQ ID NO: 1 and 10.
The mark [2] stands for this setting: Table 9 experiment, HepaRG cells, 20,000 cells per well, electroporation with 5,000 nM antisense oligonucleotide, approx. 24 hours, PKK mRNA by RT-PCR (RTS3454), relative to untreated control cells.
Where [3] appears, read: Table 10 experiment, HepaRG cells, 20,000 cells per well, electroporation with 5,000 nM antisense oligonucleotide, approx. 24 hours, PKK mRNA by RT-PCR (RTS3454), relative to untreated control cells.
Where [4] appears, read: HepaRG cells, electroporation, 5,000 nM antisense oligonucleotide, approx. 24 hours, primer probe set RTS3454, relative to untreated control cells, Table 12.
The mark [5] stands for this setting: HepaRG cells, 5,000 nM antisense oligonucleotide, human PKK mRNA, Table 18.
The mark [6] stands for this setting: Table 13, human PKK mRNA in HepaRG cells, 5-10-5 gapmers.
Where [7] appears, read: human PKK mRNA in HepaRG cells, 5-10-5 gapmers, Table 14.
Where [8] appears, read: human PKK mRNA, HepaRG cells, 5,000 nM antisense oligonucleotide, Table 18.
Where [9] appears, read: HepaRG cells, electroporation, 5,000 nM antisense oligonucleotide, approx. 24 hours, primer probe set RTS3454, relative to untreated control cells, Table 11.
Setting [10] is: Table 8, HepaRG cells, electroporation with 5,000 nM antisense oligonucleotide, approx. 24 hours, PKK mRNA by RT-PCR (RTS3454), relative to untreated control cells.
Where [11] appears, read: Table 7, HepaRG cells, electroporation with 5,000 nM antisense oligonucleotide, approx. 24 hours, PKK mRNA by RT-PCR (RTS3454), relative to untreated control cells.
[12] abbreviates: HepaRG cells, 5,000 nM antisense oligonucleotide, 5-10-5 gapmers, Table 17.

As a reminder, the % inhibition is the percentage by which the read-out fell short of the control. Higher therefore signals a strong effect. As to “547342 (antisense eA*eT*eT*eA*eA*dA*dA*dT*dT*dG*dA*d[5mC]*dT*d[5mC]*d[5mC]*eT*e[5mC]*eT*e[5mC]*eA) [compound 547342]”, under “HepaRG cells, electroporation with 5,000 nM antisense oligonucleotide, approximately 24 hours, PKK mRNA by RT-PCR (RTS3454), relative to untreated control cells, Table 6 experiment”, the “% inhibition” value is given as 66%.

On to “546891 (e[5mC]*eT*eG*eT*e[5mC]*d[5mC]*dT*dA*dT*dG*dT*d[5mC]*dA*d[5mC]*dT*eG*eT*eA*e[5mC]*e[5mC]; antisense) [compound 546891]”, for which the “% inhibition” value under setting [1] was found to be 81%. For “546326 (antisense e[5mC]*e[5mC]*e[5mC]*eA*eA*d[5mC]*dA*dG*dT*dT*dG*dG*dT*dA*dT*eA*eA*eA*eT*eT) [compound 546326]”, the “% inhibition” value is, setting by setting: under setting [2], 62%; under setting [3], 64%. For “547532 (antisense e[5mC]*eT*eG*e[5mC]*e[5mC]*dA*dA*d[5mC]*dA*dG*dT*dT*dT*d[5mC]*dA*eA*e[5mC]*eT*eT*eT) [compound 547532]”, under setting [4], the “% inhibition” value stood at 65%.

As for “548728 (DNA eT*eA*e[5mC]*eT*dA*dG*dT*dT*dT*d[5mC]*d[5mC]*dT*dA*dT*eA*eA*e[5mC]; antisense) [compound 548728]”, under setting [5], the “% inhibition” value was 0%.

As for “547469 (antisense eT*eT*eA*e[5mC]*e[5mC]*d[5mC]*dA*dA*d[5mC]*dA*dG*dT*dT*dG*dG*eT*eA*eT*eA*eA) [compound 547469]”, the “% inhibition” value under setting [2] amounted to 67% and the “% inhibition” value under setting [3] is 50%.

Take “546840 (e[5mC]*eT*eG*eT*e[5mC]*d[5mC]*dT*dA*dT*dA*dA*d[5mC]*dT*d[5mC]*dT*eA*eA*e[5mC]*eA*eG; antisense) [compound 546840]”: the “% inhibition” value under setting [6] is 53%. Regarding “547597 (antisense e[5mC]*eA*eA*eT*eA*dT*d[5mC]*dA*d[5mC]*dT*dG*dT*d[5mC]*d[5mC]*dT*eA*eT*eA*eT*e[5mC]) [compound 547597]”, under setting [7], the “% inhibition” value is listed as 29%. As for “546811 (eT*eG*eG*eA*e[5mC]*dA*dT*d[5mC]*d[5mC]*dT*dT*d[5mC]*d[5mC]*d[5mC]*d[5mC]*eT*e[5mC]*eG*e[5mC]*eA; antisense) [compound 546811]”, the “% inhibition” value under setting [6] turned out to be 49%. Take “546146 (eT*eG*eA*eG*eT*d[5mC]*dA*dG*dA*d[5mC]*dA*dT*d[5mC]*d[5mC]*dA*e[5mC]*eA*eG*eG*eA; antisense) [compound 546146]”: the “% inhibition” value (HepaRG cells, electroporation with 5,000 nM antisense oligonucleotide, approximately 24 hours, PKK mRNA by RT-PCR (RTS3454), relative to untreated control cells, Table 5 experiment) turned out to be 72%. With “546432 (eG*eA*e[5mC]*e[5mC]*e[5mC]*d[5mC]*dA*dA*d[5mC]*dA*dG*dA*d[5mC]*dA*dG*e[5mC]*e[5mC]*e[5mC]*eA*e[5mC]; antisense) [compound 546432]”, the “% inhibition” value under setting [4] worked out at 62%. “546319 (antisense e[5mC]*eA*eG*eT*eG*dT*dA*dA*dT*dT*d[5mC]*dA*dA*dA*dG*eG*eA*eG*e[5mC]*e[5mC]) [compound 546319]”: the “% inhibition” value under setting [2] was 50% and the “% inhibition” value under setting [3] is listed as 61%.

For the substance “547557 (e[5mC]*eT*eG*eT*eG*d[5mC]*dT*dG*dT*dA*dT*dT*dT*dT*dG*eG*eA*eG*e[5mC]*e[5mC]; antisense) [compound 547557]”, the “% inhibition” value under setting [4] was 59%.

For the substance “546347 (antisense eA*e[5mC]*eT*eA*eA*dG*dG*dG*dA*d[5mC]*d[5mC]*dA*d[5mC]*d[5mC]*dT*eG*eA*eA*eT*e[5mC]) [compound 546347]”, the “% inhibition” value by setting is: under setting [2], 28%; under setting [3], 22%. Regarding “548781 (antisense eA*e[5mC]*e[5mC]*eT*dA*dT*dA*dA*d[5mC]*dT*dA*dT*dA*eA*e[5mC]*eA*eG) [compound 548781]”, under setting [8], the “% inhibition” value was determined as 0%. Regarding “547644 (eT*eA*eT*e[5mC]*eA*d[5mC]*dT*dG*dT*d[5mC]*d[5mC]*dT*dA*dT*dA*eA*e[5mC]*eT*eA*eT; antisense) [compound 547644]”, the “% inhibition” value under setting [1] is 51%. In the case of “546384 (antisense e[5mC]*eG*eT*e[5mC]*e[5mC]*dT*dT*dA*dG*dG*dA*dT*dG*d[5mC]*dA*eA*eA*eG*eA*eA) [compound 546384]”, the “% inhibition” value under setting [9] is 81%.

Regarding “547697 (antisense eT*e[5mC]*eA*e[5mC]*eT*dG*dT*d[5mC]*d[5mC]*dT*dA*dT*dA*dA*d[5mC]*eT*eA*eT*eT*eA) [compound 547697]”, under “HepaRG cells, 5,000 nM antisense oligonucleotide, 5-10-5 gapmers, Table 16”, the “% inhibition” value is listed as 63%. As for “546290 (antisense e[5mC]*e[5mC]*e[5mC]*e[5mC]*eA*dA*dG*dA*dA*dG*dA*dG*dT*dT*dT*eG*eT*eT*e[5mC]*e[5mC]) [compound 546290]”, the “% inhibition” value under setting [10] is on record as 86%. Consider “546240 (eG*eT*eA*eA*eA*dG*dT*dT*d[5mC]*dT*dT*dT*dT*dG*d[5mC]*eA*eG*eG*eT*eT; antisense) [compound 546240]”, for which, under setting [11], the “% inhibition” value stood at 23%. For the substance “547740 (eA*eG*eG*eT*eG*dG*dT*dG*dG*dG*dA*dT*dT*dG*dG*eT*eG*eG*eT*eG; antisense) [compound 547740]”, under setting [12], the “% inhibition” value was found to be 30%. On the same count and under the same terms, to “547021 (eT*eT*eG*eG*eT*dG*dG*d[5mC]*dG*dG*dG*dA*dT*d[5mC]*dG*eG*eT*eG*eG*eT; antisense) [compound 547021]” belongs 57%. As to “546837 (eT*eA*eT*eA*eA*d[5mC]*dT*d[5mC]*dT*dA*dA*d[5mC]*dA*dG*dT*eA*eT*e[5mC]*eA*e[5mC]; antisense) [compound 546837]”, the “% inhibition” value under setting [6] came to 0%. In the case of “547491 (antisense e[5mC]*eA*eT*eG*eT*dA*d[5mC]*dT*d[5mC]*dA*dG*d[5mC]*dG*dA*d[5mC]*eT*eT*eT*eG*eG) [compound 547491]”, under setting [9], the “% inhibition” value is on record as 47%. Still for that read-out and setting: next, “546362 (antisense eT*e[5mC]*eA*eT*eG*d[5mC]*dT*dG*dG*dT*dG*dA*d[5mC]*dT*dG*e[5mC]*eA*eT*e[5mC]*eT) [compound 546362]”: 71%. Turning to “547460 (antisense e[5mC]*eT*eG*eG*eA*dG*dT*dT*dT*dT*dA*dT*d[5mC]*dA*dA*eG*eG*e[5mC]*eG*eA) [compound 547460]”, the “% inhibition” value is, setting by setting: under setting [2], 72%; under setting [3], 75%. For the substance “547389 (e[5mC]*eA*eG*eA*eT*dA*dT*dG*dG*dT*dG*dT*dT*dT*dT*e[5mC]*eT*eT*eG*eA; antisense) [compound 547389]”, the “% inhibition” value under setting [11] was determined as 61%. For “547571 (eA*eA*eA*eT*eG*dA*d[5mC]*dA*d[5mC]*d[5mC]*dA*dA*dA*dA*dT*eT*eG*eA*eG*eT; antisense) [compound 547571]”, the “% inhibition” value under setting [6] was 14%. Consider “546373 (antisense e[5mC]*eT*e[5mC]*eA*eG*dA*dA*dT*dT*dT*dG*dA*d[5mC]*dT*dT*eG*eA*eA*e[5mC]*eT) [compound 546373]”, for which the “% inhibition” value under setting [9] is 59%. With “546719 (e[5mC]*e[5mC]*e[5mC]*e[5mC]*e[5mC]*dA*dT*dG*dT*d[5mC]*d[5mC]*dA*dT*dG*dG*eA*e[5mC]*eT*eT*eT; antisense) [compound 546719]”, the “% inhibition” value under setting [4] is 55%. For the substance “547555 (eT*eG*eT*e[5mC]*eT*d[5mC]*d[5mC]*dT*dT*d[5mC]*d[5mC]*dA*d[5mC]*dT*dT*eG*e[5mC]*eT*e[5mC]*e[5mC]; antisense) [compound 547555]”, the “% inhibition” value under setting [4] amounted to 58%. For the substance “548746 (antisense eT*eA*eT*e[5mC]*dA*d[5mC]*dT*dG*dT*dA*d[5mC]*dT*dA*eG*eT*eT*eT) [compound 548746]”, the “% inhibition” value under setting [8] stood at 40%. With “547424 (eA*eG*eA*eG*e[5mC]*dT*d[5mC]*d[5mC]*d[5mC]*dT*dT*dG*dT*dG*dT*e[5mC]*e[5mC]*e[5mC]*eA*eT; antisense) [compound 547424]”, the “% inhibition” value under setting [10] amounted to 90%.

With “547475 (antisense eT*eT*eT*eG*eT*dT*dA*d[5mC]*d[5mC]*dA*dA*dA*dG*dG*dA*eA*eT*eA*eT*eT) [compound 547475]”, the “% inhibition” value reads like this: under setting [2], 44%; under setting [3], 42%. On to “548708 (DNA eT*eA*e[5mC]*dT*dA*dG*dT*dT*dT*d[5mC]*d[5mC]*dT*dA*eT*eA*eA; antisense) [compound 548708]”, for which the “% inhibition” value under setting [5] is on record as 0%. For the substance “547609 (antisense e[5mC]*eT*eA*eT*eA*dA*d[5mC]*dA*dA*dT*dA*dT*d[5mC]*dA*d[5mC]*eT*eG*eT*eA*e[5mC]) [compound 547609]”, the “% inhibition” value under setting [7] is listed as 23%. With “547768 (antisense eT*eT*eG*e[5mC]*e[5mC]*d[5mC]*dT*d[5mC]*dA*d[5mC]*dA*d[5mC]*dA*dT*dT*e[5mC]*eG*eA*eA*eT) [compound 547768]”, the “% inhibition” value under setting [12] worked out at 0%. On to “547734 (eG*eT*eA*eG*eG*dA*dT*dT*dG*dG*dT*dG*dG*dT*dG*eG*eG*eA*eT*eT; antisense) [compound 547734]”, for which the “% inhibition” value under setting [12] amounted to 14%. For the substance “547416 (e[5mC]*eT*eT*eA*e[5mC]*dA*dG*dT*d[5mC]*dT*dT*d[5mC]*dT*dG*dG*eG*eA*eG*eT*eA; antisense) [compound 547416]”, the “% inhibition” value under setting [10] is 79%.

The record behind these values is patent publication US11840686B2, “Modulation of prekallikrein (PKK) expression” (Ionis Pharmaceuticals, Inc., priority 2013, dated 2023).
